# Source: patent US12144791B2, “KRAS agonists, pharmaceutical compositions, and uses in managing cancer” (Emory University, priority 2019, dated 2024)
# Key:
# A549 and H157 cells = assay: Western blot of autophagy marker p62 with or without chloroquine; assay type: cell-based, human; details: 48 h, in combination with KRA-533
# Description: To assess whether the autophagy inhibitor regulates KRA-533-induced autophagy formation, A549 and H157 cells were treated with KRA-533 in the absence or presence of autophagy inhibitor chloroquine for 48 h, followed by Western blot analysis of the autophagy marker p62.
# A549 and H157 = assay: Annexin V/PI apoptosis, KRA-533 alone or with 3-MA; assay type: cell-based, human; details: 48 h, in combination with KRA-533
# Description: To determine whether autophagy plays a role in apoptosis induced by KRA-533, apoptosis was measured by FACS analysis of Annexin V/PI staining following treatments of A549 and H157 with KRA533 alone or in combination with autophagy inhibitor 3-MA for 48 h.
SMILES,"p62 expression, chloroquine added to KRA-533 (A549 and H157 cells)","KRA-533-induced apoptosis, 3-MA added (A549 and H157)"
"CCN(CC)CCCC(C)Nc1ccnc2cc(Cl)ccc12 (centres unmarked) [chloroquine, reference compound]",restored p62 expression by blocking KRA-533-induced p62 degradation,–
"Cn1cnc(N)c2ncnc1-2 [3-MA, 3-methyladenine]",–,enhanced KRA-533-induced apoptosis
